The record followed here is ChEMBL document CHEMBL1201862, “PubChem BioAssay data set” (2004).

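Interpolation was linear, between the two tested concentrations surrounding the appropriate level; five concentrations were tested over 48 hours in 96-well plates. The concentration for 50% growth inhibition is given as GI50.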 Activity calls are given as the source filed them. Rule as the data show it: active = GI50 up to about 1.1 µM and inactive = higher.

Some test systems named below: KM12; SF-295; OVCAR-3; K562; SNB-75; T47D; UACC-62; U-251; MDA-N; HOP-62; OVCAR-5; SK-OV-3; RPMI-8226; SF-539; CCRF-CEM; MCF7; HCT-116; MDA-MB-231; UO-31; SR.
Common to all, as to assay: NCI anticancer screen, dose series, 48 h

With `O=C(NNS(=O)(=O)c1ccccc1)c1cccnc1`, the GI50 in the assay with KM12, with SF-295, in the assay on OVCAR-3, with K562, in the assay on SNB-75 and in the assay with T47D was > 100 µM (inactive) each time. Besides, the GI50 in the assay on UACC-62, in the assay with U-251, with MDA-N, in the assay on HOP-62, in the assay on OVCAR-5 and in the assay on SK-OV-3 was > 100 µM (inactive) in each case. In addition, the GI50 is > 100 µM (inactive) in the assay with RPMI-8226; > 100 µM (inactive) in the assay on SF-539; 59.7 µM (inactive) in the assay on CCRF-CEM; > 100 µM (inactive) with MCF7; > 100 µM (inactive) in the assay on HCT-116; > 100 µM (inactive) in the assay with MDA-MB-231. The GI50 with UO-31 was > 100 µM (inactive).
In the case of `O=C1NC(=S)NC(=O)C1C(c1ccccc1[N+](=O)[O-])C1C(=O)NC(=S)NC1=O.c1ccncc1`, the GI50 with KM12, in the assay with SF-295, in the assay with OVCAR-3, in the assay with K562, in the assay on T47D and with UACC-62 was > 100 µM (inactive) in each case. Further, the GI50 in the assay with U-251, in the assay on MDA-N, with HOP-62, in the assay with OVCAR-5, with RPMI-8226 and in the assay on CCRF-CEM was > 100 µM (inactive) each time. For the same compound, the GI50 in the assay on MCF7, with HCT-116, in the assay with MDA-MB-231 and in the assay with UO-31 was > 100 µM (inactive) in each case.
For `Clc1ccc2c(c1)CC1C[N+]3=C(CCCC3)C1=C2` (stereo unspecified), the GI50 with KM12 is 57.8 µM (inactive); with SF-295, 28 µM (inactive); in the assay on OVCAR-3 it was 34.4 µM (inactive); with K562, 75.3 µM (inactive); in the assay with SNB-75 it was 52 µM (inactive); with T47D, 51.3 µM (inactive). The GI50 with UACC-62 was > 100 µM (inactive); in the assay with U-251, 34 µM (inactive); in the assay on MDA-N it was > 100 µM (inactive); in the assay with HOP-62, 89.9 µM (inactive); in the assay with OVCAR-5 it was > 100 µM (inactive); with SK-OV-3, > 100 µM (inactive). Moreover, the GI50 in the assay on CCRF-CEM was 83 µM (inactive); in the assay on MCF7, 61.1 µM (inactive); in the assay on HCT-116, > 100 µM (inactive); in the assay on MDA-MB-231, 44.8 µM (inactive); in the assay with UO-31 it was > 100 µM (inactive).
Regarding `CC(C)OP(=O)(CN(C)/C(F)=N\C(F)(F)F)OC(C)C`, the GI50 in the assay with KM12, with SF-295, in the assay with OVCAR-3, in the assay on K562, in the assay on SNB-75 and in the assay with T47D was > 100 µM (inactive) throughout. For the same compound, the GI50 in the assay with UACC-62, in the assay with U-251, in the assay on MDA-N, in the assay on HOP-62, with OVCAR-5 and with SK-OV-3 was > 100 µM (inactive) in each case. For the same compound, the GI50 with SF-539, in the assay with CCRF-CEM, with MCF7, in the assay on HCT-116, with MDA-MB-231 and in the assay on UO-31 was > 100 µM (inactive) in each case.
For `CC1=C(C)C2(C#N)C(=O)N3C(=NC(c4ccco4)NC3c3ccco3)C2(C#N)C(c2ccco2)N1` (stereo unspecified), the GI50 with KM12, in the assay with SR, in the assay on SF-295, with T47D, in the assay on UACC-62 and with U-251 was > 100 µM (inactive) throughout. The GI50 in the assay with MDA-N, in the assay on HOP-62, in the assay on OVCAR-5, with SK-OV-3, in the assay on RPMI-8226 and in the assay on CCRF-CEM was > 100 µM (inactive) each time. For the same compound, the GI50 in the assay on MCF7, in the assay with HCT-116, with MDA-MB-231 and in the assay on UO-31 was > 100 µM (inactive) each time.
`COc1ccc2c(c1)CCCN1Cc3ccccc3CC21` (stereo unspecified): the GI50 in the assay with KM12 is 65 µM (inactive); with SF-295, 65.9 µM (inactive); in the assay on OVCAR-3, 52.7 µM (inactive); with K562, 31.3 µM (inactive); in the assay with SNB-75, 44.7 µM (inactive); in the assay on T47D it was 33.7 µM (inactive). The GI50 in the assay with UACC-62 was 91.6 µM (inactive); with U-251 it was 75.2 µM (inactive); in the assay on MDA-N it was 38.2 µM (inactive); in the assay with HOP-62, 40.8 µM (inactive); with OVCAR-5, 78.2 µM (inactive); in the assay on SK-OV-3, > 100 µM (inactive). The GI50 with SF-539 was 92.7 µM (inactive); with CCRF-CEM, 77.1 µM (inactive); in the assay on MCF7, > 100 µM (inactive); in the assay on HCT-116, 52.7 µM (inactive); in the assay with MDA-MB-231 it was 91.4 µM (inactive); with UO-31 it was 44.7 µM (inactive).
For the compound `CCOc1cc2c(cc1O)CC[C@@H]1[C@@H]2CC[C@]2(C)C(N)CC[C@@H]12` (stereo partly specified), the GI50 is 1.58 µM (inactive) in the assay with KM12; 3.24 µM (inactive) in the assay on SF-295; 0.811 µM (active) in the assay on OVCAR-3; 3.89 µM (inactive) in the assay with K562; 2.1 µM (inactive) in the assay with SNB-75; 8.53 µM (inactive) in the assay on T47D. Further, the GI50 is 3.91 µM (inactive) in the assay with UACC-62; 2.89 µM (inactive) in the assay with U-251; 1.44 µM (inactive) in the assay with MDA-N; 5.94 µM (inactive) in the assay with HOP-62; 5.86 µM (inactive) with OVCAR-5; 3.19 µM (inactive) in the assay on SK-OV-3. Besides, the GI50 in the assay on RPMI-8226 was 3.01 µM (inactive); in the assay with SF-539, 2.36 µM (inactive); with CCRF-CEM, 1.73 µM (inactive); in the assay with MCF7 it was 3.37 µM (inactive); in the assay with HCT-116, 3.05 µM (inactive); in the assay with MDA-MB-231, 2.12 µM (inactive). In addition, the GI50 with UO-31 is 3.54 µM (inactive).
On to `C=C1[C@@H](OC(C)=O)[C@H]2[C@@H](OC(C)=O)[C@@](C)(OC(C)=O)C[C@]2(OC(C)=O)C(=O)[C@@H](C)/C=C/C(C)(C)C(=O)C[C@H]1OC(C)=O`, for which the GI50 in the assay with KM12 was > 100 µM (inactive); in the assay on SF-295, > 100 µM (inactive); in the assay with OVCAR-3, 47.2 µM (inactive); in the assay with K562, > 100 µM (inactive); with SNB-75, > 100 µM (inactive); in the assay on T47D it was > 100 µM (inactive). The GI50 with UACC-62 was 83.8 µM (inactive); in the assay on U-251, > 100 µM (inactive); in the assay on MDA-N, > 100 µM (inactive); in the assay with HOP-62 it was > 100 µM (inactive); in the assay on OVCAR-5, > 100 µM (inactive); in the assay with SK-OV-3 it was > 100 µM (inactive). Further, the GI50 in the assay with RPMI-8226 was > 100 µM (inactive); with SF-539, > 100 µM (inactive); in the assay on CCRF-CEM, 60.3 µM (inactive); in the assay on MCF7, > 100 µM (inactive); with HCT-116 it was > 100 µM (inactive); in the assay on MDA-MB-231, > 100 µM (inactive). The GI50 with UO-31 is > 100 µM (inactive).
As to `O=C1[C@@H]2C[C@@H](O)CN2C(=O)c2ccccc2N1CCCO`, the GI50 in the assay on KM12, in the assay on SF-295, in the assay on OVCAR-3, in the assay on K562, with SNB-75 and in the assay with T47D was > 100 µM (inactive) each time. In addition, the GI50 in the assay with UACC-62, in the assay on U-251, in the assay with MDA-N, in the assay with HOP-62, in the assay with OVCAR-5 and in the assay with SK-OV-3 was > 100 µM (inactive) throughout. Further, the GI50 with RPMI-8226, in the assay with SF-539, in the assay on MCF7, in the assay with HCT-116, in the assay with MDA-MB-231 and in the assay on UO-31 was > 100 µM (inactive) throughout.
Take `COc1ccc(OC)c2c(Nc3ccc(S(=O)(=O)O)c4cc(S(=O)(=O)O)cc(S(=O)(=O)O)c34)cc(C)nc12`: the GI50 with KM12, in the assay on SF-295, in the assay on OVCAR-3, in the assay on K562, with SNB-75 and in the assay on T47D was > 100 µM (inactive) each time. For the same compound, the GI50 in the assay on UACC-62, in the assay with U-251, in the assay on MDA-N, in the assay on HOP-62, in the assay with OVCAR-5 and in the assay on SK-OV-3 was > 100 µM (inactive) in each case. The GI50 in the assay with RPMI-8226, in the assay with SF-539, with CCRF-CEM, with MCF7, with HCT-116 and in the assay on MDA-MB-231 was > 100 µM (inactive) each time. Further, the GI50 in the assay on UO-31 was > 100 µM (inactive).
With `O=C(O)CC(Cc1ccccc1Cl)C(=O)O` (stereo unspecified), the GI50 in the assay with KM12, in the assay on SF-295, with OVCAR-3, in the assay on K562, in the assay on T47D and with UACC-62 was > 100 µM (inactive) each time. Further, the GI50 with U-251, in the assay on MDA-N, with HOP-62, with OVCAR-5, in the assay with SK-OV-3 and in the assay with RPMI-8226 was > 100 µM (inactive) in each case. Further, the GI50 with CCRF-CEM, in the assay on MCF7, in the assay on HCT-116, in the assay with MDA-MB-231 and in the assay with UO-31 was > 100 µM (inactive) in each case.
